The text below walks through data of patent publication US5733913A, “6-Aryl pyrido[2,3-d] pyrimidines and naphthyridines for inhibiting protein tyrosine kinase mediated cellular proliferation” (priority 1995, dated 1998).

What all share (format): biochemical
Test [1] addresses T1, human FGF-1 (flg) receptor tyrosine kinase (Homo sapiens, UniProt P11362).
T1 construct: a fragment of DNA that codes for the intracellular tyrosine kinase domain; made in house; host or cells: Sf9 insect cells (baculovirus), cell lysate
The experiment in a line: FGF receptor tyrosine kinase assay. To be noted: read-out: Inhibition of Protein Tyrosine Kinases, FGF, IC50. From the text: (§1) PDGF and FGF Receptor Tyrosine Kinase Assays
(§2) Full length cDNAs for the mouse PDGF-β and human FGF-1 (flg) receptor tyrosine kinases were obtained from J. Escobedo and prepared as described in J. Biol. Chem., 262:1482-1487 (1991), and PCR primers were designed to amplify a fragment of DNA that codes for the intracellular tyrosine kinase domain. The fragment was melded into a baculovirus vector, cotransfected with AcMNPV DNA, and the recombinant virus isolated. SF9 insect cells were infected with the virus to overexpress the protein, and the cell lysate was used for the assay. […] Briefly, to each well was added 82.5 μL of incubation buffer containing 25 mM Hepes (pH 7.0), 150 mM NaCl, 0.1% Triton X-100, 0.2 mM PMSF, 0.2 mM Na3 VO4, 10 mM MnCl2, and 750 μg/mL of Poly (4:1) glutamate-tyrosine followed by 2.5 μL of inhibitor and 5 μL of enzyme lysate (7.5 μg/μL FGF-TK or 6.0 μg/μL PDGF-TK) to initiate the reaction. Following a 10 minute incubation at 25° C., 10 μL of γ^32 P-ATP (0.4 μCi plus 50 μM ATP) was added to each well and samples were incubated for an additional 10 minutes at 25° C. The reaction was terminated by the addition of 100 μL of 30% trichloroacetic acid (TCA) containing 20 mM sodium pyrophosphate and precipitation of material onto glass fiber filter mats (Wallac). […] Nonspecific activity was defined as radioactivity retained on the filters following incubation of samples with buffer alone (no enzyme). Specific enzymatic activity was defined as total activity (enzyme plus buffer) minus nonspecific activity.

Another test has as its target T2, C-src kinase (Homo sapiens, UniProt P12931).
T2 construct: made in house; host or cells: baculovirus-infected insect cells
The experiment in a line: C-src kinase assay. The note with it: for IC50: read-out: Inhibition of Protein Tyrosine Kinases, C-src, IC50; for inhibition at 50 µM: read-out: Inhibition of Protein Tyrosine Kinases, C-src, % Inhibition. The protocol:
V-src and C-src Kinase Assays
V-src or C-src kinase is purified from baculovirus infected insect cell lysates using an antipeptide monoclonal antibody directed against the N-terminal 2-17 amino acids. The antibody, covalently linked to 0.65-μm latex beads, is added to a suspension of insect cell lysis buffer comprised of 150 mM NaCl, 50 mM Tris pH 7.5, 1 mM DTT, 1% NP-40, 2 mM EGTA, 1 mM sodium vanadate, 1 mM PMSF, 1 μg/mL each of leupeptin, pepstatin, and aprotinin. […] At the end of the lysate incubation, the beads are rinsed 3 times in lysis buffer, resuspended in lysis buffer containing 10% glycerol, and frozen. These latex beads are thawed, rinsed three times in assay buffer which is comprised of 40 mM tris pH 7.5, 5 mM MgCl2, and suspended in the same buffer. In a Millipore 96-well plate with a 0.65 μm polyvinylidine membrane bottom are added the reaction components: 10-μL v-src or c-src beads, 10 μL of 2.5 mg/mL poly GluTyr substrate, 5 μM ATP containing 0.2 μCi labeled ^32 P-ATP, 5μL DMSO containing inhibitors or as a solvent control, and buffer to make the final volume 125 μL. The reaction is started at room temperature by addition of the ATP and quenched 10 minutes later by the addition of 125 μL of 30% TCA, 0.1M sodium pyrophosphate for 5 minutes on ice. The plate is then filtered and the wells washed with two 250-μL aliquots of 15% TCA, 0.1M pyrophosphate. The filters are punched, counted in a liquid scintillation counter, and the data examined for inhibitory activity in comparison to a known inhibitor such as erbstatin. The method is described more fully in J. Med. Chem., 37:598-609 (1994).

Test [2] has as its target T3, mouse PDGF-β receptor tyrosine kinase (Mus musculus, UniProt P05622).
T3 construct: a fragment of DNA that codes for the intracellular tyrosine kinase domain; made in house; host or cells: Sf9 insect cells (baculovirus), cell lysate
The experiment in a line: PDGF receptor tyrosine kinase assay. The note with it: for IC50: read-out: Inhibition of Protein Tyrosine Kinases, PDGF, IC50; for inhibition at 50 µM: read-out: Inhibition of Protein Tyrosine Kinases, PDGF, % Inhibition.
From the text: as §1, §2

Where two headings read alike, the source gives them in different places.

T2 sequence (P12931 whole entry): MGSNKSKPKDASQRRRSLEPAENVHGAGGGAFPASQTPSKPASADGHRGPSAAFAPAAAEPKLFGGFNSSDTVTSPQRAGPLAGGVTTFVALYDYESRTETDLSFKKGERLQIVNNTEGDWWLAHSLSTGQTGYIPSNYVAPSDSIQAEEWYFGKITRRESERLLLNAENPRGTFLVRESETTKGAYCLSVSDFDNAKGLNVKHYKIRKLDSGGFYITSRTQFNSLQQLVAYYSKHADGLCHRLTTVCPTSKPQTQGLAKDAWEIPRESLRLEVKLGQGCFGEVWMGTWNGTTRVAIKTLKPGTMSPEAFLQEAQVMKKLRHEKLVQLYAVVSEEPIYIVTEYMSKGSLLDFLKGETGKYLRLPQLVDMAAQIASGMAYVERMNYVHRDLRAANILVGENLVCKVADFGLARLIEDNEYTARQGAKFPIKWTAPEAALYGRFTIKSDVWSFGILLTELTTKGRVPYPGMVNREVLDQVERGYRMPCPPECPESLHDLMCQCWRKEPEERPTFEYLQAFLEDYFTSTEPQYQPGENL
T1 sequence (P11362 478-767 limits assumed): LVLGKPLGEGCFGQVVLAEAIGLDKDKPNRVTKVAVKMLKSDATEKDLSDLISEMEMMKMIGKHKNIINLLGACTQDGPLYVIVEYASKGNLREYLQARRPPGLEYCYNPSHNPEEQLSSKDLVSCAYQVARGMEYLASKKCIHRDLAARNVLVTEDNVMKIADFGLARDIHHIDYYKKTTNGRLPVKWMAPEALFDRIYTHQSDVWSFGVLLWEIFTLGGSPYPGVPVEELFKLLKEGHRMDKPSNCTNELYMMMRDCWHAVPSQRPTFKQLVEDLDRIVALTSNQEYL
T3 sequence (P05622 599-961 limits assumed): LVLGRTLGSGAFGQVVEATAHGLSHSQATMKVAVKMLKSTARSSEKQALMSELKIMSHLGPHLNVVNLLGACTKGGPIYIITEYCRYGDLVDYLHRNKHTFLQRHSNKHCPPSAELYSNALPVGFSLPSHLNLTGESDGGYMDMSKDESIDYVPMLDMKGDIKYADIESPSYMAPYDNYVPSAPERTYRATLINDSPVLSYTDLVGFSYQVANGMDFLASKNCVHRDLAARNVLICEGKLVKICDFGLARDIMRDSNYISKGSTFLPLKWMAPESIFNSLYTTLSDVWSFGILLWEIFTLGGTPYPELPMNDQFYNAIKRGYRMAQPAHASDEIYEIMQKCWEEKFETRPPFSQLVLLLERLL

`COc1cccc(-c2cc3cnc(N)nc3nc2NC(=O)NC(C)(C)C)c1` [Example 103, 1-[2-Amino-6-(3-methoxy-phenyl)-pyrido[2,3-d]pyrimidin-7-yl]-3-tert-butyl-urea]: the IC50 – broadly, the concentration needed to halve the response being measured – in test [1] stood at 300 nM; on C-src kinase, 36400 nM; in test [2], 19.6 µM.
Turning to `CC(C)(C)NC(=O)Nc1nc2nc(N)ncc2cc1-c1ccncc1` [Example 110, 1-(2-Amino-6-pyridin-4-yl-pyrido[2,3-d]pyrimidin-7-yl)-3-tert-butyl-urea], the results for the IC50 in test [1] and in test [2] were 12800 nM and 11.5 µM, respectively. For the same compound, the inhibition (as a rule, how much of the control response was suppressed) at 50 µM at C-src kinase (at 50 μM) stood at 27.5%.
Consider `CC(C)(C)NC(=O)Nc1nc2nc(N)ncc2cc1-c1cccc(Cl)c1Cl` [Example 84, 1-[2-Amino-6-(2,3-dichlorophenyl)-pyrido[2,3-d]pyrimidin-7-yl]-3-tert-butyl-urea], for which the results for the IC50 (in test [1]; on C-src kinase; in test [2]) were 162 nM, 3820 nM and 2.26 µM, respectively.
For `CC(C)(C)NC(=O)Nc1nc2nc(N)ncc2cc1-c1cccnc1` [Example 108, 1-(2-Amino-6-pyridin-3-yl-pyrido[2,3-d]pyrimidin-7-yl)-3-tert-butyl-urea] the same measures were 4480 nM, 5660 nM and 13.7 µM.
For `CCNC(=O)Nc1nc2nc(NCCCN3CCN(C)CC3)ncc2cc1-c1c(Cl)cccc1Cl` [Example 49, 1-{6-(2,6-Dichlorophenyl)-2-[3-(4-methyl-piperazin-1-yl)-propylamino]-pyrido[2,3-d]pyrimidin-7-yl}-3-ethyl-urea], the IC50 in test [1] was found to be 53.5 nM; on C-src kinase, 24 nM; in test [2], 0.42 µM.
For `COc1ccccc1-c1cc2cnc(N)nc2nc1NC(=O)NC(C)(C)C` [Example 101, 1-[2-Amino-6-(2-methoxy-phenyl)-pyrido[2,3-d]pyrimidin-7-yl]-3-tert-butyl-urea] the same measures were 11200 nM, 19300 nM and 4.48 µM.
The like results for `COc1ccccc1NC(=O)Nc1nc2nc(NCCCN3CCN(C)CC3)ncc2cc1-c1c(Cl)cccc1Cl` [Example 43, 1-{6-(2,6-Dichlorophenyl)-2-[3-(4-methyl-piperazin-1-yl)-propylamino]-pyrido[2,3-d]pyrimidin-7-yl}-3-(2-methoxy-phenyl)-urea] were, in that order, 91 nM, 11 nM and 0.405 µM.
For `CCN(CC)CCCNc1ncc2cc(-c3c(Br)cccc3Br)c(N)nc2n1` [Example 61, 6-(2,6-Dibromo-phenyl)-N^2-[3-diethylamino-propyl)-pyrido[2,3-d]pyrimidine-2,7-diamine] the same measures were 7850 nM, 764 nM and 45.6 µM.
As for `CN(C)CC(C)(C)CNc1ncc2cc(-c3c(Cl)cccc3Cl)c(NC(=O)NC(C)(C)C)nc2n1` [Example 30, 1-tert-Butyl-3-[6-(2,6-dichlorophenyl)-2-[3-dimethylamino-2,2-dimethyl-propylamino)-pyrido[2,3-d]pyrimidin-7-yl]-urea], the figures for the IC50 in test [1] and in test [2] were 264 nM and 1.78 µM, respectively. In addition, the inhibition at 50 µM on C-src kinase (at 50 μM) was 46.8%.
For the compound `Nc1ncc2cc(-c3c(F)cccc3F)c(N)nc2n1` [Example 63, 6-(2,6-Difluoro-phenyl)-pyrido[2,3-d]pyrimidine-2,7-diamine], the IC50 in test [1] worked out at 543 nM; at C-src kinase, 1780 nM; in test [2], 7.01 µM.
Take `CN1CCN(CCCNc2ncc3cc(-c4c(Cl)cccc4Cl)c(NC(=O)NC45CC6CC(CC(C6)C4)C5)nc3n2)CC1` [Example 117, 1-Adamantan-1-yl-3-{6-(2,6-dichlorophenyl)-2-[3-(4-methyl-piperazin-1-yl)-propylamino]-pyrido[2,3-d]pyrimidin-7-yl}-urea]: the IC50 amounted to 135 nM in test [1] and 2.79 µM in test [2]. In addition, the inhibition at 50 µM at C-src kinase (at 50 μM) came to 100%.
For `Cc1cc(C)c(C)c(-c2cc3cnc(N)nc3nc2N)c1C` [Example 98, 6-(2,3,5,6-Tetramethyl-phenyl)-pyrido[2,3-d]pyrimidine-2,7-diamine], in test [1], the IC50 stood at 1800 nM. In addition, the inhibition at 50 µM on C-src kinase (at 50 μM) stood at 0.5%; in test [2], 34.3%.
For `CCN(CC)CCNc1ncc2cc(-c3c(Cl)cccc3Cl)c(N)nc2n1` [Example 65, 6-(2,6-Dichlorophenyl)-N^2-(2-diethylamino-ethyl)-pyrido[2,3-d]pyrimidine-2,7-diamine] the same measures were 17000 nM, 95% and 29.6%.
As to `CCCCCCCCNC(=O)Nc1nc2nc(NCCCN3CCN(C)CC3)ncc2cc1-c1c(Cl)cccc1Cl` [Example 47, 1-{6-(2,6-Dichlorophenyl)-2-[3-(4-methyl-piperazin-1-yl)-propylamino]-pyrido[2,3-d]pyrimidin-7-yl}-3-octyl-urea], the IC50 is 637 nM in test [1], 161 nM at C-src kinase and 6.17 µM in test [2].
For `CC(C)(C)NC(=O)Nc1nc2nc(N)ncc2cc1-c1c(F)cccc1F` [Example 87, 1-[2-Amino-6-(2,6-difluoro-phenyl)-pyrido[2,3-d]pyrimidin-7-yl]-3-tert-butyl-urea], the IC50 in test [1] was 118 nM; in test [2], 1.88 µM. The inhibition at 50 µM on C-src kinase was 92.7%.
Consider `CN1CCN(CCCNc2ncc3cc(-c4c(Cl)cccc4Cl)c(NC(=O)Nc4ccc(Cl)cc4)nc3n2)CC1` [Example 45, 1-(4-Chloro-phenyl)-3-{6-(2,6-dichlorophenyl)-2-[3-(4-methyl-piperazin-1-yl)-propylamino]-pyrido[2,3-d]pyrimidin-7-yl}-urea], for which the values for the IC50 (in test [1]; at C-src kinase; in test [2]) were 198 nM, 40 nM and 1.85 µM, respectively.
The like results for `CCN(CCO)CCCNc1ncc2cc(-c3c(Cl)cccc3Cl)c(N)nc2n1` [Example 70, 2-({3-[7-Amino-6-(2,6-dichlorophenyl)-pyrido[2,3-d]pyrimidin-2-ylamino]-propyl}-ethyl-amino)-ethanol] were, in that order, 2590 nM, 929 nM and 31.4 µM.
Take `CN1CCN(CCCNc2ncc3cc(-c4c(Cl)cccc4Cl)c(NC(=O)Nc4ccc(C(F)(F)F)cc4)nc3n2)CC1` [Example 48, 1-{6-(2,6-Dichlorophenyl)-2-[3-(4-methyl-piperazin-1-yl)-propylamino]-pyrido[2,3-d]pyrimidin-7-yl}-3-(4-trifluoromethyl-phenyl)-urea]: the results for the IC50 (in test [1]; on C-src kinase; in test [2]) were 613 nM, 260 nM and 5.32 µM, respectively.
The like results for `CCN(CC)CCCCNc1ncc2cc(-c3c(Cl)cccc3Cl)c(N)nc2n1` [Example 53, 6-(2,6-Dichlorophenyl)-N^2-(4-diethylamino-butyl)-pyrido[2,3-d]pyrimidine-2,7-diamine] were, in that order, 693 nM, 153 nM and 7.08 µM.
For the compound `Cc1cc(C)c(-c2cc3cnc(N)nc3nc2NC(=O)NC(C)(C)C)c(C)c1` [Example 97, 1-[2-Amino-6-(2,4,6-trimethyl-phenyl)-pyrido[2,3-d]pyrimidin-7-yl]-3-tert-butyl-urea], the IC50 in test [1] came out at 340 nM; in test [2], 1.73 µM. At C-src kinase, the inhibition at 50 µM worked out at 28.9%.
